Numbering of substitutions follows the chain as printed. Names may count otherwise.
Assays:
[1] = target: T1, 4HPA3H (Escherichia coli, UniProt Q57160); experiment: Whole-cell hydroxylation, cells expressing wild-type 4HPA3H; type: cell-based, E. coli; conditions: BL21(DE3) cells expressing wild-type 4HPA3H
T1 construct: expressed in transfected cells; host or cells: E. coli BL21(DE3)

[2] = target: T2, 4HPA3H-Y301F/S462A (SEQ ID NO:175) (Escherichia coli, UniProt Q57160, S462A/Y301F); experiment: Solid phase-based cascade (Talon column), hydroxylation of naringenin to eriodictyol; type: biochemical, E. coli
T2 construct: made in house; host or cells: E. coli BL21(DE3)
Protocol: Stock solutions of […] and eriodictyol (10 mM each) in methanol were produced (for the structure of the compounds, see FIG. 9). They were diluted using acetonitrile for obtaining the desired concentrations (70, 110, 140, 210 and 280 μM). 10 μl of each sample was injected in to a HPLC machine and calibration curves were produced for both substances (data not shown).
First the catalysis was performed using 9 mU oxidase 4HPA3H in a 10 ml reaction comprising 1 ml 1M Tris/HCl, pH 7.5; 25 μl of a 10 mM NADH solution, 20 μl of a 5 mM FAD solution and 1 ml formate solution using 9 mU 4HPA3H-Y301F/S462A (SEQ ID NO:175) and 0.57 mU PrnF-reductase (SEQ ID NO:176) and 640 mU FDH (SEQ ID NO:177). Subsequently the enzymes were mixes, 100 μl 1M Tris/HCl solution, pH 7.5, was added and ddH2O (deionized, reverse osmosis) was added ad 2 ml. The enzyme solution was at least 5 times passed through a 1 ml Talon column with a flow rate of 0.1 ml/min^−1 to let the proteins bind to the column in a homogenous way. The evaluation of the complete binding of the proteins to the column material was measured via Bradford assay. Then, the column was washed once with 50 mM Tris/HCl, pH 7.5 (=basis buffer), and connected to a peristaltic pump.
The constituents of each reaction mixture were transferred to a suitable sterile flask, which was then connected to a peristaltic pump. During reaction, the reaction mixture was slightly stirred with the help of a magnetic stirrer. Using a flow rate of 1 ml/min, the system was washed with the basis buffer for 2 min and a control sample was taken. Only then, the substrate was added, here 200 μM naringenin (from a 10 mM stock solution in methanol). The substrate was pumped over the Talon column having the enzymes bound thereto with a flow rate of 1 ml/min at maximum. During the time range from 0-1310 min, the sample extraction was performed in samples of 35 μl each. Said samples were mixed with an equal volume of acetonitrile and were immediately injected into a HPLC device (20 μl each). The evaluation was conducted with the help of a calibration curve done at the beginning of the experiment and thereby measuring and calculating the peak areas (see FIG. 10).
The same assay was performed using 35 mU hydroxylase/1 ml column volume and the concentration of the co-enzymes for regeneration of the cofactor was increased equivalently.

[3] = target: two component non-P450 hydroxylase HpaBC (Escherichia coli, UniProt Q57160); conditions: native wild-type HpaBC; proceeds incomplete; cited from earlier work
[4] = target: T3, wild-type 4HPA3H (Escherichia coli, UniProt Q57160); experiment: In vitro hydroxylation by the 4HPA3H/PrnF/FDH system, wild-type 4HPA3H; type: biochemical, E. coli; conditions: substrate 1 mM, purified wild-type 4HPA3H, optimized conditions
T3 construct: made in house; host or cells: E. coli BL21(DE3)
Protocol: (§1) Purified 4HPA3H (A) or variants (B) (Y301I depicted in white and Y301F/S462A depicted in black) were used for conversion of substrates (1 mM) under optimized conditions. The numbers correspond to substrates as explained in the legend for FIG. 1 above.
(§2) In order to develop an effective and low-cost enzyme system for in vitro hydroxylation, several parameters of the 4HPA3H reaction with respect to maximum reaction rate were optimized. By means of a spectrophotometric assay (Example 4 above), the inventors screened different buffer systems and optimized the concentration of the components p-coumaric acid (1 cf. FIG. 1), FAD, NADH and methanol, the incubation temperature and oxygen transfer (i.e. by variation of the shaking frequency) (optimum conditions are given in the Experimental Section). […] In contrast to the cofactors, the accompanying cofactor recycling redox enzymes PrnF and FDH were used in excess due to their high specific activity.
In accordance with the whole-cell transformation experiments (FIG. 3), product yields in the conversion by the wild-type 4HPA3H (FIG. 8A) ranged from high (1, 13, 15 cf. FIG. 1) or moderate (5 cf. FIG. 1) to low (9, 11 cf. FIG. 1), whereas ferulic acid 3 was not oxidized. […] However, in contrast to the experiments with life biocatalysts […] conversion of naringenin (7 cf. FIG. 1) by the wild-type 4HPA3H (25% yield) was observed (which might be explained by increased substrate availability). The hydroxycarbazole (11) was not accepted by the double variant Y301F/S462A, probably because of the high substrate concentration which seems to reflect strong […] inhibition—an effect which has previously been observed for other 4HPA3H enzymes. Noteworthy, HPLC analysis of the reaction products confirmed product specificity.

[5] = target: T4, 4HPA3H double variant Y301F/S462A (Escherichia coli, UniProt Q57160, S462A/Y301F); experiment: In vitro hydroxylation by the 4HPA3H/PrnF/FDH system, variant Y301F/S462A; type: biochemical, E. coli; conditions: substrate 1 mM, purified Y301F/S462A
T4 construct: made in house; host or cells: E. coli BL21(DE3)
Protocol: as §1, §2
(§3) In accordance with the whole-cell transformation experiments (FIG. 3), product yields in the conversion by the wild-type 4HPA3H (FIG. 8A) ranged from high (1, 13, 15 cf. FIG. 1) or moderate (5 cf. FIG. 1) to low (9, 11 cf. FIG. 1), whereas ferulic acid 3 was not oxidized. […]

[6] = test system: 4HPA3H/PrnF/FDH system; experiment: Dependence of in vitro conversion of p-coumaric acid on FAD concentration; type: biochemical
Protocol: The reactions were to performed using the 4HPA3H/PrnF/FDH system.
as §2

[7] = test system: 4HPA3H enzymes; conditions: previous study; cited from earlier work
[8] = Reduction of FAD with NADH by purified PrnF; type: biochemical; conditions: purified protein
From the text: In order to characterize 4HPA3H and its variants with respect to specific activity, the development of a convenient in vitro assay was necessary. As the enzymes rely on a reductase component which provides the cofactor FADH2 (see FIG. 2), the inventors focused on screening of a suitable reductase enzyme in the first step. The flavin reductase HpaC from E. coli—the endogenous partner of 4HPA3H—was not accessible due to formation of mainly insoluble protein under a variety of expression conditions (data not shown).

[9] = Whole-cell hydroxylation, variants on substrates 5, 9 and 11; type: cell-based; conditions: whole cells
[10] = Whole-cell hydroxylation, variants compared with wild-type on well-accepted substrates; conditions: whole cells
Protocol: Substrates (200 μM) as shown in FIG. 1 were added to suspensions of bacterial cells expressing 4HPA3H or its single (A) and double variants (B). After incubation for 16 hours, catechols and residual substrates were extracted and analyzed by HPLC
Suspensions of the cells were tested for hydroxylation of a panel of eight phenolic compounds (FIG. 1) which belong to different classes of natural products: we included (I) phenolic acids and ketones such as p-coumaric acid (1), ferulic acid (3), rheosmin (15) and p-hydroxybenzoic acid (9), (II) polycyclic compounds such as the hydroxycoumarin umbelliferone (13), the stilbene resveratrol (5) and the flavonoid naringenin (7). […] 4HPA3H was also tested for conversion of 4-methoxycinnamic acid and 4-aminocinnamic acid.

[11] = In vitro assay (4HPA3H/PrnF/FDH), conversion of ferulic acid; type: biochemical; conditions: purified enzyme, PrnF and FDH
Protocol: (§4) For assaying 4HPA3H in microplate scale, 4HPA3H was incubated with PrnF, the substrate p-coumaric acid (1 cf. FIG. 1) and the formate dehydrogenase (FDH) from Candida boidinii. Similar as reported in our previous publication, this enzyme was introduced for regeneration of the costly cofactor NADH: NAD^+ formed during the reaction is recycled with sodium formate, yielding a sequential three-enzyme cascade for hydride transfer (FIG. 2). The conversion of p-coumaric acid (1 cf. FIG. 1) was measured spectrophotometrically by a previously established catechol complexation method (M. Dippe, B. Weigel, R. Heinke, T. Vogt, L. A. Wessjohann, 2014), which could be applied for quantitative determination of the product caffeic acid (see FIG. 6). […] However, similar to the data obtained from whole-cell biotransformations (see Example 2), these variants were beneficial in the conversion of ferulic acid (3 cf. FIG. 1), which is also reflected by comparably high conversion rates (4HPA3H-Y301F/S462A: 1.06±0.31 nmol min^−1 mg^−1, 4HPA3H-Y301I: 4.49±0.20 nmol min^−1 mg^−1).
(§5) In order to develop an effective and low-cost enzyme system for in vitro hydroxylation, several parameters of the 4HPA3H reaction with respect to maximum reaction rate were optimized. […]

[12] = In vitro hydroxylation, mutant enzymes on challenging substrates 3 and 7; type: biochemical; conditions: substrate 1 mM, purified enzymes
Protocol: as §1, §2, §3

[13] = In vitro catechol complex formation assay (4HPA3H/PrnF/FDH), p-coumaric acid; type: biochemical; conditions: purified enzyme, optimized conditions, PrnF and FDH
Protocol: (A) Standard curve for the determination of caffeic acid (2 cf. FIG. 1). Mixtures of caffeic acid and p-coumaric acid (1) were incubated with FeCl3 and analyzed at 595 nm as described in the Experimental Section. (B) Time course of the oxidation of p-coumaric acid (1 cf. FIG. 1) by wild-type 4HPA3H. The enzymatic reaction was performed under optimized conditions, and produced caffeic acid (2 cf. FIG. 1) was detected as Fe^3+ complex. Data are the means±standard deviations obtained from three measurements.
as §4, §5

O=C1C[C@@H](c2ccc(O)cc2)Oc2cc(O)cc(O)c21 [Compound 7, naringenin]
acceptance as substrate [1]: not accepted
remaining concentration of naringenin ([2]; 9 mU enzyme/1 ml column, 200 μM naringenin, after 1290 min): 29.3 µM
remaining concentration of naringenin ([2]; 35 mU hydroxylase/1 ml column volume, after 240 min): 33.3 µM
conversion of naringenin to eriodictyol [3]: < 10%

Oc1ccc2c(c1)[nH]c1ccccc12 [Compound 11, 2-hydroxycarbazole]
product yield [4]: low
acceptance as substrate [5]: not accepted

Cc1cc2nc3c(=O)[nH]c(=O)nc-3n(C[C@H](O)[C@H](O)[C@H](O)COP(=O)(O)OP(=O)(O)OC[C@H]3O[C@@H](n4cnc5c(N)ncnc54)[C@H](O)[C@@H]3O)c2cc1C [FAD, flavin adenine dinucleotide]
effect of high concentrations on the redox system [6]: inhibitory

O=C(O)C=Cc1ccccc1 [cinnamic acid]
hydroxylation of substrate [7]: unable to hydroxylate

B1: PrnF: flavin reductase from Pseudomonas protegens Pf-5, cofactor recycling enzyme, SEQ ID NO:176 (protein, listed as Pseudomonas protegens)
chain: MNAATETKVHDLLDAEGRDVRDARELRNVLGQFATGVTVITTRTADGRNVGVTANSFSSLSLSPALVLWSLARTAPSLKAFCSASHFAINVLGAHQHHLSEQFARAAADKFAGVAHSYGKAGAPVLDDVVAVLVCRNVTQYEGGDHLIFIGEIEQYRYSGAEPLVFHAGQYRGLGSNRAESVLKHE
modifications: flavin reductase PrnF
activity in reduction of FAD with NADH [8]: 16,660±1,600 nmol min^−1 mg^−1

B2: 4HPA3H-Y301F: 4HPA3H single variant Y301F (protein, listed as Escherichia coli)
chain: MKPEDFRASTQRPFTGEEYLKSLQDGREIYIYGERVKDVTTHPAFRNAAASVAQLYDALHKPEMQDSLCWNTDTGSGGYTHKFFRVAKSADDLRQQRDAIAEWSRLSYGWMGRTPDYKAAFGCALGANPGFYGQFEQNARNWYTRIQETGLYFNHAIVNPPIDRHLPTDKVKDVYIKLEKETDAGIIVSGAKVVATNSALTHYNMIGFGSAQVMGENPDFALMFVAPMDADGVKLISRASYEMVAGATGSPYDYPLSSRFDENDAILVMDNVLIPWENVLIYRDFDRCRRWTMEGGFARMFPLQACVRLAVKLDFITALLKKSLECTGTLEFRGVQADLGEVVAWRNTFWALSDSMCSEATPWVNGAYLPDHAALQTYRVLAPMAYAKIKNIIERNVTSGLIYLPSSARDLNNPQIDQYLAKYVRGSNGMDHVQRIKILKLMWDAIGSEFGGRHELYEINYSGSQDEIRLQCLRQAQNSGNMDKMMAMVDRCLSEYDQDGWTVPHLHNNDDINMLDKLLK
modifications: 4HPA3H HpaB Y301F
notes: 4HPA3H single variant Y301F
conversion of the substrates 5, 9 and 11 [9]: superior
activity towards substrates 1, 13, 15 compared with wild-type enzyme [10]: comparably active

B3: 4HPA3H-Y301I: 4HPA3H single variant with isoleucine at position 301 (protein, listed as Escherichia coli)
chain: B2 chain with F301I
modifications: 4HPA3H HpaB Y301I
notes: 4HPA3H single variant with isoleucine at position 301
conversion rate of ferulic acid (3) [11]: 4.49 ± 0.20 nmol/min/mg
transformation of the challenging substrates 3 and 7 [12]: optimal
specific activity towards p-coumaric acid (1) [13]: 1.3 ± 0.6 nmol/min/mg
